Test results published in patent publication US20200354426A1 (MEDIMMUNE LIMITED, priority 2016, published 2020).
Numbered stars: 1 amine (or outer) side, 2 acyl side, 3 side chain; on linkers, the order of the positions; unused ones are H or OH. Side chains are listed from the residue outwards. Peptide text beside a SMILES is read from it. * marks the point of attachment. γGlu = O=C(O)[C@H](CCC(=O)[*:2])N[*:1]; Palmitoyl = CCCCCCCCCCCCCCCC(=O)*

Legend:
[1] = Stability testing of peptides in plasma; assay type: in vitro ADME, mouse
Description: The stability in plasma of the peptideS […], […], […] and […] was determined as follows. […] The spiked plasma samples were gently mixed and allowed to equilibrate for about 5 minutes before start of experiment. The plasma samples were incubated for 48 hours in a GalaxyR CO2 incubator at 37° C. […] The samples were stored at -70° C. until analysis. Plasma samples were assayed as follows. […] After mixing and centrifugation, 100 μl the supernatant was transferred to a new plate and 1 μl was injected onto an analytical column. The analysis was performed using a μLC-system ([…]) coupled to a medium high resolution mass spectrometer (Perkin Elmer PenTOF) with positive electrospray ionisation. […] Flow: 0.1 ml/min using a slow reversed phase gradient. […] Cleavage products arise from the action of the protease DPP IV in plasma. Both the degradation of the peptides and formation of peptide products were reported in percentage of the initial peptide concentration. Peaks were integrated and % remaining peptide was calculated: […] Levels of deamidation and DPP IV cleavage were low for […] and […].

[2] = Peptide solubility in buffers (A280); assay type: physicochemical
From the text: G730 was soluble in a pH range of 4.5 to 8.0.

Human GLP1R = Human GLP1R (Homo sapiens, UniProt P43220)
[3] = system: overweight or obese subjects with type 2 diabetes mellitus; assay: Phase 1/2 multiple-ascending-dose study of G933, Cohorts 1-6 (efficacy, PK, safety); assay type: in vivo, human
From the text: Approximately 75 overweight or obese subjects with relatively well controlled type 2 diabetes mellitus (T2DM) are enrolled to participate in the study. The enrolled subjects meet the following inclusion and exclusion criteria.
Exclusion Criteria: • Any condition that would interfere with evaluations of the investigational product or interpretation of subject safety or study results. […] Patients who utilize benzodiazepines for chronic anxiety or sleep disorders may be permitted to enter the study; • History of severe allergy/hypersensitivity or ongoing clinically important allergy/hypersensitivity; • Whole blood or red blood cell donation, or any blood loss >500 mL during the 2 months prior to screening; • Received another new chemical entity (defined as a compound that has not been approved for marketing), or has participated in any other clinical study that included drug treatment within at least 30 days or 5 half-lives prior to the first administration of investigational product in this study (whichever is longer). The period of exclusion to begin 30 days or 5 half-lives of investigational product after the final dose, or after the last visit, whichever is longest.
Part A consists of 3 cohorts.
Part B consists of 1 cohort.
The initial dose is 100 μg.
Approximately 32 overweight or obese subjects with relatively well controlled type 2 diabetes mellitus (T2DM) are enrolled to participate in the study. The enrolled subjects meet the inclusion and exclusion criteria described in Example 5 with the following exceptions:
Inclusion Criteria: • Cohort 5 and 6 subjects must be willing and able to self-administer daily subcutaneous (SC) injections following an initial self-injection of placebo (or normal saline) during the screening period.
Exclusion Criteria: • Abnormal vital signs, after 10 minutes of supine rest, are defined as any of the following: (a) If systolic BP<90 mm Hg or ≥140 mm Hg; (b) Diastolic BP<50 mm Hg or ≥90 mm Hg; or (c) HR<45 or >85 bpm; • Unstable angina pectoris or stable angina pectoris classified higher than Canadian Cardiovascular Society class II or any previous medical history of myocardial infarction or stroke, or a history of a transient ischemic attack within the prior 12 months.
A randomized, double-blind, multiple-ascending dose study is performed. This study consists of 2 cohorts: cohort 5 and cohort 6. […] Cohorts 5 and 6 have approximately 32 subjects total and are run in parallel.
The study consists of an inpatient up-titration evaluation period beginning on Day 3 for both Cohorts 5 and 6 and an outpatient follow-up period. The first 4 days and the final day of dosing at 300 μg […].
Subjects are admitted to the clinic as described in Example 5 for Cohorts 1-4. […] Subjects have a second inpatient period for the initiation of the 300 μg dose ending on the fourth day at that dose followed by at-home self administration.
Additional time points include before commencing the 300 μg dose (Day 16 for Cohort 5 and Day 11 for Cohort 6) and at the end of dosing (Day 22 for Cohort 5 and Day 17 for Cohort 6). The MMT are performed as described in Example 5.

[4] = Cohort 4, after 41 days, p<0.001

Sequence of Human GLP1R (P43220 24-463): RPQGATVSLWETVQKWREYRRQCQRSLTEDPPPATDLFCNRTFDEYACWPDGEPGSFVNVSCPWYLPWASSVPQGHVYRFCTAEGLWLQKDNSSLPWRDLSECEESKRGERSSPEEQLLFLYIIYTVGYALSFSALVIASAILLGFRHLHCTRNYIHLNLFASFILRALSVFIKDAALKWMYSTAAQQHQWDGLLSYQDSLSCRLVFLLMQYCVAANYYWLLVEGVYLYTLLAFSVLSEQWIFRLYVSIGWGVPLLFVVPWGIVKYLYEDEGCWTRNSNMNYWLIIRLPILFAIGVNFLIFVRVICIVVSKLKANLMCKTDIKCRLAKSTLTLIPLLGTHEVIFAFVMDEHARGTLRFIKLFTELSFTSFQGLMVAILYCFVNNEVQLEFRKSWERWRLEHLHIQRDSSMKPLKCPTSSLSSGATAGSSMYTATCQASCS

CCCCCCCCCCCCCCCC(=O)N[C@@H](CCC(=O)NCCCC[C@H](NC(=O)[C@H](CCCCN)NC(=O)[C@H](CO)NC(=O)[C@H](Cc1ccc(O)cc1)NC(=O)[C@H](CC(=O)O)NC(=O)[C@H](CO)NC(=O)[C@@H](NC(=O)[C@H](Cc1ccccc1)NC(=O)[C@@H](NC(=O)CNC(=O)[C@H](CCC(N)=O)NC(=O)[C@H](CO)NC(=O)[C@@H](N)Cc1c[nH]cn1)[C@@H](C)O)[C@@H](C)O)C(=O)N[C@@H](CC(C)C)C(=O)N[C@@H](CC(=O)O)C(=O)N[C@@H](CO)C(=O)N[C@@H](CCC(=O)O)C(=O)N[C@@H](CCCNC(=N)N)C(=O)N[C@@H](C)C(=O)N[C@@H](CCCNC(=N)N)C(=O)N[C@@H](CC(=O)O)C(=O)N[C@@H](Cc1ccccc1)C(=O)N[C@H](C(=O)N[C@@H](C)C(=O)N[C@@H](Cc1c[nH]c2ccccc12)C(=O)N[C@@H](CC(C)C)C(=O)N[C@H](C(=O)N[C@@H](C)C(=O)NCC(=O)NCC(N)=O)C(C)C)C(C)C)C(=O)O [Peptide G730] (H-HSQGTFTSDYSKK([γGlu-Palmitoyl])LDSERARDFVAWLVAGG-NH2; N-terminus assumed)
% +1 DPP cleaved product [1]: 5%
% +1 prod [1]: 15%
% DPP cleaved product [1]: 14%
remaining at 24 h, 2 μmol/L ([1]; mouse plasma, 37° C., 24 h, read-out: % stable peptide): 65%
Conc. (A280), target 1 mg/ml ([2]; Glutamate pH 4.5, 100 mM): 830 µg/mL
Conc. (A280), target 1 mg/ml ([2]; Phosphate pH 6.5, 100 mM): 830 µg/mL
Conc. (A280), target 1 mg/ml ([2]; Phosphate pH 7.5, 100 mM): 850 µg/mL
Conc. (A280), target 1 mg/ml ([2]; Phosphate, pH = 6, 100 mM): 140 µg/mL
Conc. (A280), target 1 mg/ml ([2]; Tris pH 7.5, 100 mM): 830 µg/mL
Conc. (A280), target 1 mg/ml ([2]; Tris pH 8.0, 100 mM): 1100 µg/mL
free peptide at 4.4% HSA (Human GLP1R): 0.85%

L-Histidyl-L-seryl-L-glutaminylglycyl-L-threonyl-L-phenylalanyl-L-threonyl-L-seryl-L-alpha-aspartyl-(N6-[N-(1-oxohexadecyl)-L-gamma-gutamyl])L-lysy-L-sery-L-alpha-glutamyl-L-tyrosyl-L-leucyl-L-alpha-aspartyl-L-seryl-L-alpha-glutamyl-L-arginyl-L-alanyl-L-arginyl-L-alpha-L-aspartyl-L-phenylalanyl-L-valyl-L-alanyl-L-tryptophyl-L-leucyl-L-alpha-glutamyl-L-alanylglycylglycine [Peptide G933]
Fasting Glucose (change) ([3]; Cohort 1, 100 ug, n = 6): -28.00 mg/dL
Weight (change) ([3]; Cohort 1, 100 ug, n = 6): -1.1 kg
Fasting Glucose (change) ([3]; Cohort 2, 150 ug, n = 6): -17.90 mg/dL
Weight (change) ([3]; Cohort 2, 150 ug, n = 6): -0.5 kg
weight differential ([3]; Cohort 3 (up to 200 μg, 15 days)): more than 2 kg
Fasting Glucose (change) ([3]; Cohort 3, 200 ug, n = 6): -43.20 mg/dL
Weight (change) ([3]; Cohort 3, 200 ug, n = 6): -2.4 kg
Fasting Glucose (change) ([3]; Cohort 4, 200 ug, n = 25): -32.62 mg/dL
Weight (change) ([3]; Cohort 4, 200 ug, n = 25): -2.11 kg
patients who lost at least 2% of their weight ([3]; Cohort 4, after 41 days): 84%
patients who lost at least 5 kg ([3]; Cohort 4, after 41 days): 44%
percent of weight lost ([3]; Cohort 4, after 41 days): about 4.18%
weight lost ([3]; Cohort 4, after 41 days): about 3.83 kg
HbA1c reduction ([3]; Cohort 4, after 41 days of treatment): 0.92%
percent weight loss difference between G933 and placebo [3, 4]: 2.47%
weight loss difference between G933 and placebo [3, 4]: 2.12 kg
mean reduction in glucose AUC from baseline (day 1) to day 41 ([3]; Cohort 4, up to 200 μg, 90% C.I. −47.1, −29.0): 38.5%
mean relative reduction in liver fat percentage from baseline versus placebo ([3]; Cohort 4, 95% CI 7.2, 33.9, p=0.004): 20.5%
reduction in liver volume compared to placebo ([3]; Cohort 4, (−0.24, −0.03), p=0.01): 0.14 L
mean HbA1c on day 42 ([3]; Cohort 4, baseline mean […]): 6.3%
glucose AUC reduction ([3]; Cohort 5 (up to 300 μg, 22 days), 90% C.I. −49.9, −33.5): 41.7%
Fasting Glucose (change) ([3]; Cohort 5, 300 ug, n = 12): -24.40 mg/dL
Weight (change) ([3]; Cohort 5, 300 ug, n = 12): -2.11 kg
weight loss difference versus placebo ([3]; Cohort 5, after 22 days): 2.11 kg
weight lost ([3]; Cohort 5, after 22 days): about 3.09 kg
glucose AUC reduction ([3]; Cohort 6 (up to 300 μg, 17 days), C.I. −43.3, −28.3): 35.8%
Fasting Glucose (change) ([3]; Cohort 6, 300 ug, n = 12): -36.94 mg/dL
Weight (change) ([3]; Cohort 6, 300 ug, n = 12): -1.88 kg
weight loss difference versus placebo ([3]; Cohort 6, after 17 days): 1.88 kg
weight lost ([3]; Cohort 6, after 17 days): about 2.23 kg
mixed-meal test glucose AUC reduction ([3]; Cohorts 1-3 (100-200 μg QD)): > 40%
weight loss ([3]; Cohorts 1-3, dose dependent trend): up to 2 kg
